In patent publication US20070092475A1, “Methods for enhancing the morphology, tone, texture and/or appearance of skin using a Meadowestolide” (priority 2005, published 2007):

Tests used:
[1] = In vitro water binding experiments (water retention by loss on drying); type: physicochemical; conditions: for water retention (FIG. 1 and FIG. 2), in words: 3 ml substance over 10 ml distilled water, after mixing
Method: It was postulated that, as a result of the structure of the Meadowestolide prepared in Example 1, which has a carboxylic acid function and an ester linkage in juxtaposition to one another, a considerable degree of hydrogen-bonding and consequent water binding should be evident. Consequently, in vitro experiments to test this theory employing the Meadowestolide, as well as the carefully selected comparative control compounds described below, were conducted.
The Meadowestolide prepared in Example 1 (3 ml) and the control substances (3 ml) were carefully layered over distilled water (10 ml) using a long-nosed pipette, hand mixed for 30 seconds and photographed using a Sony Digital DSC-F505V Camera equipped with a Carl Zeiss Vario-Sonner lens. The degree of water retention was then examined by measuring the “loss on drying” (water removed from lipid phase […]). The upper lipid phase was completely removed using a long-nose pipette and analyzed for water content by “loss on drying” using a drying oven at 105 degrees centigrade until there was no longer any change in weight.

[2] = system: human skin; test: In vivo transepidermal water loss (TEWL), ServoMed Evaporimeter; conditions: one application neat (100%) to forearm, about 2 minutes; twenty subjects; FIG. 3
Text: (§1) TEWL and tissue hydration (of the stratum comeum) experiments were designed to evaluate the moisture retention properties of the Meadowestolide described in Example 1 in comparison with a relevant oil and a non-polymerized ester. Thus, for these studies, the natural oil to select as a control was Meadowfoam seed oil since it was the precursor oil from which the Meadowestolide was derived. […] Thus, in these experiments, the following substances were compared: (a) Meadowfoam seed oil (triglyceride oil); (b) a long-chain guerbet ester of meadowfoam fatty acid (CH3(CH2)9CH((CH)2O(CO)(CH2)22CH3)((CH2)7CH3); and (c) the Meadowestolide prepared in Example 1.
(§2) These experiments were conducted to assess and compare the moisturizing efficacy of the Meadowestolide and appropriate controls on human skin using a NOVA Technology Corporation (Portsmouth, N.H.) Dermal Phase Meter 9003 (DPM) and a ServoMed Evaporimeter (ServoMed, Sweden). The combined use of these instruments assesses the moisturizing and barrier enhancement properties of topically applied materials. […]
A ServoMed Evaporimeter was used to measure transepidermal water loss (TEWL). A hand-held probe on this meter samples the relative humidity at two points above the skin surface, thereby allowing the rate of water loss to be calculated from the humidity gradient. Measurements are recorded as g/m2/hr. […]

[3] = system: human skin; test: In vivo tissue hydration of the stratum corneum, Dermal Phase Meter 9003; conditions: one application neat (100%) to forearm, FIG. 3
Text: as §1, §2
In the tissue hydration experiments, a Dermal Phase Meter 9003 was used to quantify moisture content in the stratum comeum (SC) by an electrical capacitance method. […] The Dermal Phase Meter 9003 numbers are directly related to the electrical capacitance of the skin measured as picoFarads (pF).

[4] = Analytical results on purified Meadowestolide (stability); type: physicochemical
Text: The purified Meadowestolide was identified and subsequently quantified by infrared spectroscopy and HPLC coupled with an evaporative light-scattering detector.

water bound, relative to Jojoba oil ([1]; 3 ml substance layered over 10 ml distilled water, hand mixed 30 seconds, loss on drying of lipid phase at 105 degrees centigrade, vs Jojoba oil)	water bound, relative to Meadowfoam seed oil and meadowfoam fatty acid ([1]; 3 ml substance layered over 10 ml distilled water, hand mixed 30 seconds, loss on drying of lipid phase at 105 degrees centigrade, vs Meadowfoam seed oil and meadowfoam fatty acid)	stability [4]	Compound	water retention (FIG. 1 and FIG. 2), in words [1]	transepidermal water loss (TEWL), in words [2]	tissue hydration, in comparison with Meadowfoam seed oil, in words ([3]; about 2 minutes, twenty subjects)	hydration capability, in comparison with the guerbet ester of meadowfoam fatty acid, in words ([3]; molecular sizes reasonably equivalent)
approximately nine	approximately four	extended stability	CCCCCCCCCCCCCC/C=C/CCCC(=O)OC(CCCCCCCCCCCCCCC)CCCC(=O)O (centres unmarked) [Meadowestolide]	capable of binding water to a significant extent	very efficient in preventing water loss	improved hydration	hydration capability exceeds that of a simple ester
			CCCCCCCCCCCCCCCCC=CCCCC(=O)O [meadowfoam fatty acid, CH3—(CH2)15—(CH)2—(CH2)3—COOH, reference compound]	retained a small quantity of water			
